Where “and” joins values, the source holds several entries; their conditions need not be identical. Identical values can stand only once.
How the values were obtained:
[1] = system: recombinant TEAD1 protein (194-411, Uniprot ID: P28347); test: Thermal shift assay (protein melting point curve), TEAD1; assay type: binding; parameters: key to the marks not given beside the values; details: 10 μM TEAD protein, 50 μM test compound
[2] = target: recombinant TEAD2 protein (218-447, Uniprot ID: Q15562) (Homo sapiens (Human), UniProt Q15562); test: Thermal shift assay (protein melting point curve), TEAD2; assay type: binding; details: 10 μM TEAD protein, 50 μM test compound
[3] = In vitro liver microsome stability, human; assay type: in vitro ADME; details: human liver microsomes
Experimental: (§1) Testosterone is selected as the positive reference compound. The specific method is as follows:
(§2) Preparing 0.1MK3 PO4 (pH 7.4) buffer and 3×NADPH stock solution (6 mM, 5 mg/mL), and preheating in a 37° C. water bath; preparing spiking solution of tested compound and control compound: adding 5 μL compound stock solution (10 mM) to 95 μL acetonitrile; preparing 1.5 μM spiking solution in microsomes (0.75 mg/mL): add 1.5 μL spiking solution and 18.75 μL liver microsome solution (20 mg/mL) to 479.75 μL K3PO4 buffer; taking 30 μL spiking solution in microsomes and adding it to the multiwell plate, and incubating at 37° C. for 5 min; adding 15 μL of NADPH stock solution to each well, starting to react, and timing; adding 150 μL of acetonitrile solution containing IS at 0 min, 5 min, 15 min, 30 min, 45 min and 60 min respectively to terminate the reaction; after 10 min of oscillation, centrifuging the reaction at 6000 rpm for 15 min; taking 80 μL of supernatant from each well for LC/MS detection and calculating Ti/2.
(§3) Liver microsomes of mice, rats, dogs, and human used in the experiment are purchased from Xenotech.

[4] = In vitro liver microsome stability, rat; assay type: in vitro ADME; details: rat liver microsomes
Experimental: as §1, §2, §3

[5] = In vitro liver microsome stability, dog; assay type: in vitro ADME; details: dog liver microsomes
Experimental: as §1, §2, §3

[6] = system: Caco-2 cells; test: Permeability test on Caco2 cells; assay type: in vitro ADME; details: for Papp average value: n = 2; for Papp / Receiving chamber concentration Area ratio/OD: single replicate
Experimental: After resuscitation, the Caco-2 cells are transferred to a conventional culture dish and cultured in a high-glucose DMEM medium (containing 10% FBS) at 37° C. and 5% CO2 in an incubator. When the cells cover 80% to 95% of the bottom of the dish, they are digested with trypsin containing 0.25% EDTA to disperse them into a single cell suspension, and the cell concentration is determined using a cell counter, after that, the concentration of the cell suspension is adjusted to 2 to 2.5×10^5/mL with fresh culture medium and inoculated into a Transwell polycarbonate membrane 12-well plate, the fresh culture medium is replaced every two days in the first two weeks and once a day in the last week, the culture is continued for 19 to 21 days to obtain a fully differentiated single cell layer.

[7] = target: recombinant TEAD1 protein central pocket (Homo sapiens (Human), UniProt P28347); test: Competitive thiol binding assay (CPM assay), TEAD1; details: 150 nM recombinant TEAD protein, 150 nM CPM
Experimental: Diluting the tested compound in gradient to 5 uL with buffer (25 mM HEPES, 150 mM NaCl, pH6.5), then adding 5 μL of the newly prepared 0.45 uM recombinant TEAD protein solution, and incubating at room temperature for 10 minutes. […] After shaking the plate at room temperature for 1 hour, measuring the fluorescence intensity (Ex/Em: 380/470 nm).

[8] = SD rat plasma pharmacokinetic test; assay type: in vivo
Experimental: Animal information: SD rats, male, n=6, about 180-200 g, purchased from Sibeifu (Beijing) Biotechnology Co., Ltd.
Animal dietary status: Animals are fasted for at least 12 h before administration and resumed eating 4h after administration; during the experiment, animals are allowed to drink water freely.
Administration: administering the compound to experimental animals (n=3) by intragastric administration at a dose of 10 mg/kg, and the solvent is 0.5% CMC-Na; administering the compound to experimental animals (n=3) by intravenous injection at a dose of 1 mg/kg, and the solvent is DMSO:PEG400:normal saline=5:30:65, preparing immediately before use.
Sample collection: collecting about 0.25 mL of whole blood at each time point, anticoagulating with EDTA-K2, and placing on ice immediately after collection, within 0.5 h after collection, centrifuging at 4° C., 2000 g for 5 min, and sucking up all plasma and placing in labeled EP tubes, placing the EP tubes on ice, and freezing the plasma samples in a −60˜−90° C. refrigerator within 0.5 h.
Sample processing: centrifuging whole blood samples at 4° C., 2000 g for 5 min within 30 min after collection to separate plasma, and collecting the upper plasma sample into a sample tube.
Sample testing and data processing: Using LC-MS/MS method to detect the concentration of the original drug in plasma samples at each time point. WinNonlin is used for fitting and pharmacokinetic parameter calculation.

Chain of recombinant TEAD2 protein (218-447, Uniprot ID: Q15562) (Q15562 218-447): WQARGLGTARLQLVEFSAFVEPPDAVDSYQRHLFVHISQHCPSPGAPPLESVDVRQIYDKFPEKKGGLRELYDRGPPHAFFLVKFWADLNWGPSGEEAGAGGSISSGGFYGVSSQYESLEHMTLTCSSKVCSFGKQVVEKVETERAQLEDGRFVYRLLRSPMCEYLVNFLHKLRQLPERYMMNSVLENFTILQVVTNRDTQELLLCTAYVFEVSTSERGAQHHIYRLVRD
Chain of recombinant TEAD1 protein central pocket (P28347 whole entry): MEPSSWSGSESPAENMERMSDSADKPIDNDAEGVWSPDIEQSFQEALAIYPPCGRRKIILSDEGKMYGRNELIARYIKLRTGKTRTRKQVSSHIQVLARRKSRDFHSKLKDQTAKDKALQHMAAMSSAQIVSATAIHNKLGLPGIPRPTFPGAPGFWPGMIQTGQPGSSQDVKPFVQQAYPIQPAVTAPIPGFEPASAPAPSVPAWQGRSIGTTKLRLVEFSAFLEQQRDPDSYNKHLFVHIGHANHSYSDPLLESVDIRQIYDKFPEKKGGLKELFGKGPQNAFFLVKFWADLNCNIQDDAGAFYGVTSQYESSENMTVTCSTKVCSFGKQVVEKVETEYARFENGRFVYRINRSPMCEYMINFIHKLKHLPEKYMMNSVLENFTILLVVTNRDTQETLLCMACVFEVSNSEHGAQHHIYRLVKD

Δ T m (TEAD2) [2]: ++
human half-life [3]: 1.78 h
rat half-life [4]: 0.8 h
dog half-life [5]: 2.35 h
Papp average value ([6]; AP→BL): 8.96 10^−6 cm/s
Papp ([6]; AP→BL): 8.81 10^−6 cm/s and 9.12 10^−6 cm/s
Receiving chamber concentration Area ratio/OD ([6]; AP→BL): 0.114 and 0.118
Papp average value ([6]; BL→AP): 18.1 10^−6 cm/s
Papp ([6]; BL→AP): 18.0 10^−6 cm/s and 18.2 10^−6 cm/s
Receiving chamber concentration Area ratio/OD ([6]; BL→AP): 0.699 and 0.708
Penetration Type ([6]; Caco2 cell model): High
intestinal permeability ([6]; Caco2 cell model): high intestinal hypertonicity
IC50 [7]: 290 nM
pharmacokinetic properties in SD rats [8]: good pharmacokinetic properties
AUC0-t ([8]; SD rats, IG 10 mg/kg): 4440 ng·h/mL
AUC0-∞ ([8]; SD rats, IG 10 mg/kg): 4510 ng·h/mL
Cmax ([8]; SD rats, IG 10 mg/kg): 1480 ng/mL
MRT0-t ([8]; SD rats, IG 10 mg/kg): 2.25 h
MRT0-∞ ([8]; SD rats, IG 10 mg/kg): 2.37 h
Tmax ([8]; SD rats, IG 10 mg/kg): 0.50 (0.5, 0.5) h
t1/2 ([8]; SD rats, IG 10 mg/kg): 1.26 h
Absolute bioavailability (%) ([8]; SD rats, IG 10 mg/kg vs IV 1 mg/kg): 84.9%
AUC0-t ([8]; SD rats, IV 1 mg/kg): 506 ng·h/mL
AUC0-∞ ([8]; SD rats, IV 1 mg/kg): 523 ng·h/mL
CL ([8]; SD rats, IV 1 mg/kg): 32.83 mL/min/kg
Cmax ([8]; SD rats, IV 1 mg/kg): 333 ng/mL
MRT0-t ([8]; SD rats, IV 1 mg/kg): 1.52 h
MRT0-∞ ([8]; SD rats, IV 1 mg/kg): 1.73 h
Vss ([8]; SD rats, IV 1 mg/kg): 3.36 L/kg
t1/2 ([8]; SD rats, IV 1 mg/kg): 1.18 h
SMILES: CP(C)(=O)c1ccc(NCc2ccc(C(F)(F)F)cc2)c(-c2nccc(OC3COC3)n2)c1 [Compound 17]
Δ T m (TEAD1) [1]: ++++
